Reference: patent US20200237670A1, “DYE-STABILIZED NANOPARTICLES AND METHODS OF THEIR MANUFACTURE AND THERAPEUTIC USE” (Memorial Sloan Kettering Cancer Center, priority 2015, published 2020)
One block for each compound: values may come before it.

How the values were obtained:
[1] = test system: MYC-driven autochthonous murine hepatic tumor; assay: MYC/β-catenin driven liver tumor model: targeting and biodistribution; assay type: in vivo, FVB mice; settings: near-IR fluorescence of livers 24 h after i.v. injection, sodium salt
Experimental: Sorafenib-containing nanoparticles were tested in vivo for imaging and treatment of hepatocellular carcinoma in an orthotopic model. FVB mice were transfected by hydrodynamic injection on day 0 with plasmids to C-Myc and beta-catenin to inoculate liver tumors. FIG. 5A depicts mice bearing liver tumors and healthy mice were injected with IR783-SFB (for example, at 20 mg/kg) at day 21 after inoculation. After 24 hours the livers were extracted and imaged using an IVIS Preclinical In Vivo Imaging System (Perkin Elmer) in fluorescence imaging mode. […] The tumors were also imaged by their GFP expression (right panel). […] The GFP expression in the tumors was also imaged (right panel).
Next, the biodistribution of INPs in a MYC-driven murine hepatic tumor model was evaluated. To generate autochthonous liver tumors, Sleeping Beauty transposon vectors encoding c-Myc and mutant β-catenin (coupled to GFP) were hydrodynamically delivered into immunocompetent FVB mice along with a vector encoding Sleeping Beauty transposase as described herein.
Hydrodynamic transfection was performed. […] Tumors were evaluated using fluorescence imaging (IVIS imaging system, Xenogen Corp., Hopkinton, Mass.) and immunohistochemistry (H&E). Tumor volume was measured using a caliper.

[2] = test system: BAEC, bEnd3, SB2, 3T3, BMDM and RAW264 cells; assay: In vitro uptake of IR783-SFB nanoparticles (fluorescence microscopy); assay type: cell-based; settings: 2 h, 30 μg/ml particles or equivalent free dye
Experimental: Bone marrow derived macrophages (BMDM), RAW264 macrophages, and 3T3 fibroblasts did take up the nanoparticles efficiently. […] FIG. 4B depicts quantitative analysis of fluorescence intensity in the cell lines was conducted using ImageJ v1.40 (NIH, USA). The mean fluorescence intensities are expressed in arbitrary units per square micron. The increased uptake by endothelial cells and cancer cells as opposed to macrophages and fibroblasts is about 4 fold. FIG. 4C depicts confirmation of the differential uptake between cell lines, 3T3 fibroblasts (GFP) were co-cultured with SB2 liver cancer cells (RFP) to confluence and incubated with nanoparticles for 30 min. The cell morphology of the co-culture can be seen in bright light (upper left, DIC) and fluorescence channel (upper right).
The uptake of the sorafenib-IR783 nanoparticles (IR783-SFB) was tested in 6 cell types: endothelial cells (BAEC and bEnd3 cell line), liver HCC cells (SB2 cells, derived from the in vivo model), fibroblasts (3T3), and macrophages (BMDM and RAW264). The cells were incubated for 2 hours with 30 μg/ml and as a control with an equivalent amount of free IR783. The cells were washed and stained with Cell Mask (Life Sciences) for membrane staining and DAPI for nuclear staining. The cells were imaged with a florescence microscope equipped with an Indocyanine Green filter set, as depicted in FIGS. 4A-4B.

[3] = test system: endothelial cells; 3T3-GFP / SB2 co-culture; assay: Photodynamic therapy in cell culture (NIR irradiation); assay type: cell-based; settings: 30 min incubation, 1 min xenon lamp, imaged after 24 h
Experimental: The IR783-SFB nanoparticles were tested for the application of photodynamic therapy. The […] properties of the dyes may provide an added therapeutic benefit of the targeted nanoparticles. Endothelial and cancer cells were incubated with the nanoparticles for 30 min and then washed and exposed to NIR light from a Xenon lamp for 1 min. […] FIG. 8A depicts endothelial cells that were incubated for 30 min with NP and irradiated for 1 min with a xenon lamp (Xcite) using an ICG filter set (Chroma). […] After 24 h, the morphology of the irradiated area was altered and cells detached after washing (upper right).

[4] = test system: MYC-driven autochthonous murine hepatic tumor; assay: MYC/β-catenin driven liver tumor model: anti-tumor efficacy; assay type: in vivo, FVB mice; settings: 30 mg/kg sorafenib p.o. or as INP i.v., weekly for three weeks; endpoint about day 60
Experimental: For example, here 20 FVB mice were administered a hydrodynamic injection on day 0 with plasmids to C-Myc and beta-catenin to initiate liver tumors. The efficacy of IR783-SFB was compared to oral SFB. Treatments started at day 21 after inoculation and were administrated once weekly for 3 weeks.
To test the therapeutic potential of the INPs in vivo, the anti-tumor efficacy of equivalent drug doses in the liver cancer mouse model described above were either delivered intravenously via INPs or the orally administered free drug. Sorafenib or sorafenib INPs were injected weekly over the course of three weeks. […] Furthermore, quantitative measures of liver weight, tumor volume, and GFP emission confirmed virtually complete tumor eradication in INP-treated livers (FIGS. 12D-12F).
Hydrodynamic transfection was performed. Specifically, 10 μg pT3-EF1a-c-myc, 10 μg pT3-EF1a-β-CateninT41A-IRES-GFP and CMV-SB13 Sleeping Beauty transposase (1:5 ratio) were mixed in sterile saline solution. A total volume of plasmid-saline solution mix corresponding to 10% of the body weight was injected into the lateral tail vein of 6- to 8-week old female FVB/N mice (Jackson Laboratory, Me., USA) within 5-7 seconds. […] Tumors were evaluated using fluorescence imaging (IVIS imaging system, Xenogen Corp., Hopkinton, Mass.) and immunohistochemistry (H&E). Tumor volume was measured using a caliper.

[5] = Nanoparticle formation with indocyanine IR783 by nano-precipitation (DLS / visual precipitation)

SMILES: CC1(C)C(=CC=C2CCCC(C=CC3=[N+](CCCCS(=O)(=O)[O-])c4ccccc4C3(C)C)=C2Cl)N(CCCCS(=O)(=O)[O-])c2ccccc21.[Na+] [IR783, 2-[2-[2-Chloro-3-[2-[1,3-dihydro-3,3-dimethyl-1-(4-sulfobutyl)-2H-indol-2-ylidene]-ethylidene]-1-cyclohexen-1-yl]-ethenyl]-3,3-dimethyl-1-(4-sulfobutyl)-3H-indolium hydroxide, inner salt sodium salt]
- accumulation in liver tumors ([1]; listed as free indocyanine): did not accumulate in tumors
- accumulation in liver tumors [1]: does not accumulate
- uptake (internalization) in cell lines [2]: does not internalize in the cells
- effect on cells after NIR irradiation [3]: no significant effect

SMILES: CNC(=O)c1cc(Oc2ccc(NC(=O)Nc3ccc(Cl)c(C(F)(F)F)c3)cc2)ccn1 [Sorafenib]
- anti-tumor efficacy in liver tumor model [4]: multiple liver tumors

- formation of nanoparticles with indocyanine [5]: did not
SMILES: Cc1onc(-c2ccccc2)c1-c1ccc(S(N)(=O)=O)cc1 [Valdecoxib]
